Results reported in patent publication US12123028B2, “Viral inactivation methods for continuous manufacturing of antibodies” (Bayer HealthCare LLC, priority 2018, dated 2024).
Entries after “also recorded” stand apart in the source; their conditions may differ.

Experiments:
aquatic environment = details: cited from earlier work
X-MuLV = X-MuLV inactivation by detergent in neutralized mAb protein A eluate, remaining infectivity by TCID50 assay on PG-4 cells; type: cell-based, Xenotropic Murine Leukemia Virus; details: 16° C.
Description: The pH of various protein A eluates was adjusted to 7.0 with 1M Tris buffer. The pH adjusted eluate was then filtered through a 0.22 um filter. Various volumes of 5% stock solution of Mega-10, Tween 20, or Tween 80 were added to the filtered neutralized protein A eluates. This was done to prepare protein A eluates containing various concentrations of each detergent. X-MuLV was then spiked at a 1:20 ratio to the neutralized protein A eluate containing various concentrations of each detergent that had been pre-incubated at a 16° C. water bath prior to the virus spiking. After a thorough mixing, an aliquot of a sample was removed immediately and quenched with a diluent (McCoy's medium containing 3 μg/mL of polybrene) at 1:12 for Mega-10 or at 1:100 for Tween 20 and Tween 80 to stop the inactivation, and the sample was designated as a time-zero sample. The remaining spiked eluate was returned to the water bath and the samples were collected at the indicated time to evaluate the viral inactivation kinetics.
The remaining X-MuLV infectivity in the samples post-inactivation treatment was determined by a TCID50 assay that is an endpoint dilution assay to quantify the amount of virus required to produce a cytopathic effect in 50% of inoculated tissue culture cells. Virus titers were estimated using the Spearman-Karber method and reported as TCID50/mL with a calculated 95% confidence interval (CI). Briefly, a sufficient number of 96-well plates with PG-4 (feline S^+L^−, ATCC#CRL-2032) cells were prepared the day before starting the viral inactivation experiments and incubated overnight in a 37° C. humidified CO2 incubator. A set of ten 3.2 fold dilution of the diluted positive control (1:100) and viral inactivated samples were prepared in a dilution block. Each set of the 11 serial dilutions of the samples were inoculated correspondingly onto wells (100 μL per well) of the first 11 columns in a 96-well plate that had been pre-seeded with PG-4 cells. The 12th column in the same plate was inoculated with the corresponding diluent to serve as non-virus negative control. The positive control was prepared by spiking the filtered neutralized protein A eluate with X-MuLV at a 1:20 ratio. The inoculated plates were then incubated in a 37° C. humidified CO2 incubator for approximate 2 hours. A volume of 100 uL of 2× assay medium (92% McCoy's 5A medium, 4% FBS, 2% Penicillin/Streptomycin, 2% L-Glutamine) was added to each well of the plates at the end of incubation. The plates were then returned to the same incubator, and continued incubation for 6 days. Each well of the plates were scored under a microscope for the presence of cytopathic effect (CPE) and the results were recorded in a scoring sheet. Virus titers were then estimated using the Spearman-Karber method and reported as TCID50/mL with a calculated 95% confidence interval (CI).
To evaluate robustness of X-MuLV inactivation by Mega-10 in Protein A eluates of mAb1, X-MuLV was spiked at a 1:20 ratio into the neutralized mAb1 protein A eluate contain 0.1%, 0.2% and 0.3% of Mega-10. After a thorough mixing, an aliquot of sample was removed at 0, 2.5, 5, 10, and 30 minutes after incubation at 16° C. The remaining virus titer in the collected samples was determined by the TCID50 assay.

[1] = 0.1% Mega-10, neutralized mAb1 protein A eluate pH 7.01, incubation 0 minutes
[2] = 0.1% Mega-10, neutralized mAb1 protein A eluate pH 7.01, incubation 2.5 minutes
[3] = 0.1% Mega-10, neutralized mAb1 protein A eluate pH 7.01, incubation 5.0 minutes
[4] = 0.1% Mega-10, neutralized mAb1 protein A eluate pH 7.01, incubation 10 minutes
[5] = 0.1% Mega-10, neutralized mAb1 protein A eluate pH 7.01, incubation 30 minutes
[6] = 0.1% Mega-10, neutralized mAb2 protein A eluate pH 7.01, incubation 0 minutes
[7] = 0.1% Mega-10, neutralized mAb2 protein A eluate pH 7.01, incubation 2.5 minutes
[8] = 0.1% Mega-10, neutralized mAb2 protein A eluate pH 7.01, incubation 5.0 minutes
[9] = 0.1% Mega-10, neutralized mAb2 protein A eluate pH 7.01, incubation 10 minutes
[10] = 0.1% Mega-10, neutralized mAb2 protein A eluate pH 7.01, incubation 30 minutes
[11] = 0.2% Mega-10, neutralized mAb1 protein A eluate pH 7.01, incubation 0 minutes
[12] = 0.2% Mega-10, neutralized mAb1 protein A eluate pH 7.01, incubation 5.0 minutes
[13] = 0.2% Mega-10, neutralized mAb1 protein A eluate pH 7.01, incubation 10 minutes
[14] = 0.2% Mega-10, neutralized mAb1 protein A eluate pH 7.01, incubation 30 minutes
[15] = 0.2% Mega-10, neutralized mAb2 protein A eluate pH 7.01, incubation 0 minutes
[16] = 0.2% Mega-10, neutralized mAb2 protein A eluate pH 7.01, incubation 2.5 minutes
[17] = 0.2% Mega-10, neutralized mAb2 protein A eluate pH 7.01, incubation 5.0 minutes
[18] = 0.2% Mega-10, neutralized mAb2 protein A eluate pH 7.01, incubation 10 minutes
[19] = 0.3% Mega-10, neutralized mAb1 protein A eluate pH 7.01, incubation 0 minutes
[20] = 0.3% Mega-10, neutralized mAb1 protein A eluate pH 7.01, incubation 5.0 minutes
[21] = 0.3% Mega-10, neutralized mAb1 protein A eluate pH 7.01, incubation 10 minutes
[22] = 0.3% Mega-10, neutralized mAb1 protein A eluate pH 7.01, incubation 30 minutes
[23] = 0.3% Mega-10, neutralized mAb2 protein A eluate pH 7.01, incubation 0 minutes
[24] = 0.3% Mega-10, neutralized mAb2 protein A eluate pH 7.01, incubation 5.0 minutes
[25] = 0.3% Mega-10, neutralized mAb2 protein A eluate pH 7.01, incubation 10 minutes
[26] = 0.3% Mega-10, neutralized mAb2 protein A eluate pH 7.01, incubation 30 minutes

SMILES: CCCCCCCCCC(=O)N(C)C[C@H](O)[C@@H](O)[C@H](O)[C@H](O)CO [Mega-10, N-Methylglucamide]
- toxicity to the aquatic environment (aquatic environment): without toxicity to the aquatic environment; also recorded: no toxicity to the aquatic environment
- LRF ± 95% CL (X-MuLV; 0.10% Mega 10 alone, neutralized mAb1 protein A eluate, 0 minutes (Table 2)): 0.33 ± 0.35
- LRF ± 95% CL (X-MuLV; 0.10% Mega 10 alone, neutralized mAb1 protein A eluate, 2.5 minutes (Table 2)): 0.33±0.29
- LRF ± 95% CL (X-MuLV; 0.10% Mega 10 alone, neutralized mAb1 protein A eluate, 2.5 minutes (Table 2), listed as Mega 10): 0.33 ± 0.29
- LRF ± 95% CL (X-MuLV; 0.10% Mega 10 alone, neutralized mAb1 protein A eluate, 5 minutes (Table 2)): 0.33 ± 0.32
- LRF ± 95% CL (X-MuLV; 0.10% Mega 10 alone, neutralized mAb1 protein A eluate, 10 minutes (Table 2)): 0.39 ± 0.36
- LRF ± 95% CL (X-MuLV; 0.10% Mega 10 alone, neutralized mAb1 protein A eluate, 30 minutes (Table 2)): 0.64 ± 0.33
- LRF ± 95% CL (X-MuLV; [1]): 0.26 ± 0.28
- Log10 TCID50/mL (X-MuLV; [1]): 6.53 ± 0.20 Log10 TCID50/mL
- LRF ± 95% CL (X-MuLV; [2]): 0.38 ± 0.32
- Log10 TCID50/mL (X-MuLV; [2]): 6.41 ± 0.26 Log10 TCID50/mL
- LRF ± 95% CL (X-MuLV; [3]): 0.38 ± 0.28
- Log10 TCID50/mL (X-MuLV; [3]): 6.41 ± 0.21 Log10 TCID50/mL
- LRF ± 95% CL (X-MuLV; [4]): 0.38 ± 0.28
- Log10 TCID50/mL (X-MuLV; [4]): 6.41 ± 0.20 Log10 TCID50/mL
- LRF ± 95% CL (X-MuLV; [5]): 0.38 ± 0.23
- Log10 TCID50/mL (X-MuLV; [5]): 6.41 ± 0.12 Log10 TCID50/mL
- LRF ± 95% CL (X-MuLV; [6]): 0.36 ± 0.28
- Log10 TCID50/mL (X-MuLV; [6]): 6.56 ± 0.22 Log10 TCID50/mL
- LRF ± 95% CL (X-MuLV; [7]): 0.36 ± 0.28
- Log10 TCID50/mL (X-MuLV; [7]): 6.56 ± 0.22 Log10 TCID50/mL
- LRF ± 95% CL (X-MuLV; [8]): 0.36 ± 0.25
- Log10 TCID50/mL (X-MuLV; [8]): 6.56 ± 0.18 Log10 TCID50/mL
- LRF ± 95% CL (X-MuLV; [9]): 0.29 ± 0.26
- Log10 TCID50/mL (X-MuLV; [9]): 6.63 ± 0.19 Log10 TCID50/mL
- LRF ± 95% CL (X-MuLV; [10]): 0.36 ± 0.28
- Log10 TCID50/mL (X-MuLV; [10]): 6.56 ± 0.22 Log10 TCID50/mL
- LRF ± 95% CL (X-MuLV; 0.15% Mega 10 alone, neutralized mAb2 protein A eluate, 0 minutes (Table 3)): 0.99 ± 0.30
- LRF ± 95% CL (X-MuLV; 0.15% Mega 10 alone, neutralized mAb2 protein A eluate, 2.5 minutes (Table 3)): 1.62 ± 0.30
- LRF ± 95% CL (X-MuLV; 0.15% Mega 10 alone, neutralized mAb2 protein A eluate, 5 minutes (Table 3)): 1.68±0.31
- LRF ± 95% CL (X-MuLV; 0.15% Mega 10 alone, neutralized mAb2 protein A eluate, 5 minutes (Table 3), listed as Mega 10): 1.68 ± 0.31
- LRF ± 95% CL (X-MuLV; 0.15% Mega 10 alone, neutralized mAb2 protein A eluate, 10 minutes (Table 3)): 1.94 ± 0.32
- LRF ± 95% CL (X-MuLV; 0.15% Mega 10 alone, neutralized mAb2 protein A eluate, 30 minutes (Table 3)): 1.94 ± 0.32
- LRF ± 95% CL (X-MuLV; [11]): 2.91 ± 0.32
- Log10 TCID50/mL (X-MuLV; [11]): 3.88 ± 0.25 Log10 TCID50/mL
- Log10 TCID50/mL (X-MuLV; 0.2% Mega-10, neutralized mAb1 protein A eluate pH 7.01, incubation 2.5 minutes): ≤1.21 Log10 TCID50/mL
- LRF ± 95% CL (X-MuLV; [12]): ≥5.58 ± 0.19
- Log10 TCID50/mL (X-MuLV; [12]): ≤1.21 Log10 TCID50/mL
- LRF ± 95% CL (X-MuLV; [13]): ≥5.58 ± 0.19
- Log10 TCID50/mL (X-MuLV; [13]): ≤1.21 Log10 TCID50/mL
- LRF ± 95% CL (X-MuLV; [14]): ≥5.58 ± 0.19
- Log10 TCID50/mL (X-MuLV; [14]): ≤1.21 Log10 TCID50/mL
- treatment time to inactivate X-MuLV to the level below the detection limit (X-MuLV; 0.2% Mega-10, neutralized mAb1 protein A eluate): 2.5 min
- LRF ± 95% CL (X-MuLV; [15]): 4.73 ± 0.46
- Log10 TCID50/mL (X-MuLV; [15]): 2.19 ± 0.43 Log10 TCID50/mL
- LRF ± 95% CL (X-MuLV; [16]): 5.31±0.75
- Log10 TCID50/mL (X-MuLV; [16]): 1.61 ± 0.73 Log10 TCID50/mL
- LRF ± 95% CL (X-MuLV; [17]): 5.31 ± 0.75
- Log10 TCID50/mL (X-MuLV; [17]): 1.61 ± 0.73 Log10 TCID50/mL
- LRF ± 95% CL (X-MuLV; [18]): 5.50 ± 0.90
- Log10 TCID50/mL (X-MuLV; [18]): 1.42 ± 0.88 Log10 TCID50/mL
- Log10 TCID50/mL (X-MuLV; 0.2% Mega-10, neutralized mAb2 protein A eluate pH 7.01, incubation 30 minutes): ≤1.11 ± 0.27 Log10 TCID50/mL
- LRF ± 95% CL (X-MuLV; [19]): 3.79 ± 0.33
- Log10 TCID50/mL (X-MuLV; [19]): 3.00 ± 0.27 Log10 TCID50/mL
- Log10 TCID50/mL (X-MuLV; 0.3% Mega-10, neutralized mAb1 protein A eluate pH 7.01, incubation 2.5 minutes): ≤1.21 Log10 TCID50/mL
- LRF ± 95% CL (X-MuLV; [20]): ≥5.58 ± 0.19
- Log10 TCID50/mL (X-MuLV; [20]): ≤1.21 Log10 TCID50/mL
- LRF ± 95% CL (X-MuLV; [21]): ≥5.58 ± 0.19
- Log10 TCID50/mL (X-MuLV; [21]): ≤1.21 Log10 TCID50/mL
- LRF ± 95% CL (X-MuLV; [22]): ≥5.58 ± 0.19
- Log10 TCID50/mL (X-MuLV; [22]): ≤1.21 Log10 TCID50/mL
- treatment time to inactivate X-MuLV to the level below the detection limit (X-MuLV; 0.3% Mega-10, neutralized mAb1 protein A eluate): 2.5 min
- LRF ± 95% CL (X-MuLV; [23]): 4.73 ± 0.46
- Log10 TCID50/mL (X-MuLV; [23]): 2.19 ± 0.43 Log10 TCID50/mL
- Log10 TCID50/mL (X-MuLV; 0.3% Mega-10, neutralized mAb2 protein A eluate pH 7.01, incubation 2.5 minutes): ≤1.11 Log10 TCID50/mL
- LRF ± 95% CL (X-MuLV; [24]): ≥5.81 ± 0.18
- Log10 TCID50/mL (X-MuLV; [24]): ≤1.11 Log10 TCID50/mL
- LRF ± 95% CL (X-MuLV; [25]): ≥5.81 ± 0.18
- Log10 TCID50/mL (X-MuLV; [25]): ≤1.11 Log10 TCID50/mL
- LRF ± 95% CL (X-MuLV; [26]): ≥5.81 ± 0.18
- Log10 TCID50/mL (X-MuLV; [26]): ≤1.11 Log10 TCID50/mL
- treatment time to inactivate X-MuLV to the level below detection (X-MuLV; 0.3% Mega-10, neutralized mAb2 protein A eluate): 2.5 min
